These are literature values, as cited in US20240032540A1, “MICROPARTICLE COMPOSITIONS COMPRISING FUNGICIDES” (BASF CORPORATION, priority 2020, published 2024).

Consider `O=C(NCCc1ncc(C(F)(F)F)cc1Cl)c1ccccc1C(F)(F)F` [Fluopyram, N-{2-[3-chloro-5-(trifluoromethyl)-2-pyridyl]ethyl}-a,a,a-trifluoro-o-toluamide], for which the solubility in water result is recorded as “only sparingly soluble in water”.
